We go through 14 compounds from ChEMBL document CHEMBL1201862, “PubChem BioAssay data set” (2004).

Holding throughout (assay): growth of human tumour cells (NCI), 48 h
Assay [1] has as its system ACHN.
In assay [2] the test system is CCRF-CEM.
Assay [3] concerns EKVX.
The subject of assay [4] is HCC 2998.
Assay [5] has as its system HCT-116.
In assay [6] the test system is IGROV-1.
Assay [7] concerns LOX IMVI.
The subject of assay [8] is M14.
The test system of assay [9] is MOLT-4.
In assay [10] the test system is NCI-H23.
In assay [11] the test system is OVCAR-5.
Assay [12] has as its system SF-295.
Assay [13] has as its system SK-MEL-5.
The test system of assay [14] is TK-10.
The test system of assay [15] is U-251.
In assay [16] the test system is SK-MEL-28.

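A five-concentration, 48-hour dose response in 96-well plates underlies each endpoint, interpolated linearly between surrounding concentrations. Abbreviation: GI50, concentration required for 50% inhibition of growth.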 Calls of active or inactive are those of the source. Rule as the data show it: active = GI50 up to about 1.1 µM and inactive = higher.

With `Cc1nc2c(o1)/C(=N\c1ccccc1)c1ccccc1C2=O`, the GI50 was 7.16 µM (inactive) in [1]; 10.9 µM (inactive) in assay [2]; 14.2 µM (inactive) in [3]; 18.6 µM (inactive) in assay [4]; 6.98 µM (inactive) in assay [5]; 17.9 µM (inactive) in [6]. For the same compound, the GI50 is 3.32 µM (inactive) in [7]; 9.64 µM (inactive) in [8]; 18 µM (inactive) in assay [9]; 1.9 µM (inactive) in assay [10]; 18.5 µM (inactive) in assay [11]; 16.5 µM (inactive) in [12]. Also, the GI50 in assay [13] was 2.56 µM (inactive); in assay [14], 35.1 µM (inactive); in assay [15], 3.61 µM (inactive).

`O=C1C=C[C@@]23CC1C(O)C[C@H]2C=Cc1ccccc13` (some centres not stated): the GI50 in [1], in [2], in assay [4], in assay [5], in assay [6] and in assay [7] was > 100 µM (inactive) in each case. The GI50 in assay [8], in assay [9], in [11], in assay [12] and in [13] was > 100 µM (inactive) each time.

`O=[N+]([O-])c1cccc(C2=NOC(C3CCCCC3)C2)c1` (configuration not stated): the GI50 in [1], in [2], in assay [4], in assay [5], in assay [6] and in assay [8] was > 100 µM (inactive) each time. For the same compound, the GI50 in assay [9] is > 100 µM (inactive); in assay [10], > 100 µM (inactive); in [11], 92 µM (inactive); in assay [12], 94.6 µM (inactive); in assay [16], > 100 µM (inactive); in assay [13] it was > 100 µM (inactive). Moreover, the GI50 in assay [14] and in assay [15] was > 100 µM (inactive) in each case.

With `COc1cc([C@H]2c3cc4c(cc3[C@H](NCc3ccc(F)cc3)C3COC(=O)[C@H]32)OCO4)cc(OC)c1O` (some centres not stated), the GI50 in assay [1] is 1.13 µM (inactive); in assay [2], 0.923 µM (active); in assay [3] it was 6.19 µM (inactive); in assay [4], 10.5 µM (inactive); in assay [5], 7.59 µM (inactive); in assay [6], 1.44 µM (inactive). For the same compound, the GI50 in assay [7] was 2.64 µM (inactive); in assay [8], 3.19 µM (inactive); in assay [9], 0.344 µM (active); in assay [10] it was 2.22 µM (inactive); in assay [11], 8.91 µM (inactive); in assay [12] it was 2.25 µM (inactive). Further, the GI50 is 11 µM (inactive) in assay [16], 15.4 µM (inactive) in [14] and 1.09 µM (active) in assay [15].

As to `CC(=O)c1ccc(NC(=O)C(=O)C(C(=O)c2ccc(Cl)c(Cl)c2)C2OC(=O)c3ccccc32)cc1` (configuration not stated), the GI50 in assay [1] was 20.5 µM (inactive); in [2], 73.3 µM (inactive); in assay [3], 40 µM (inactive); in assay [4], 13.7 µM (inactive); in assay [5], 13 µM (inactive); in assay [6] it was 29.7 µM (inactive). Besides, the GI50 in assay [7] was 14.4 µM (inactive); in assay [8], 17.7 µM (inactive); in [9], > 100 µM (inactive); in assay [10], 13.6 µM (inactive); in assay [11], 21.5 µM (inactive); in assay [14] it was 31.4 µM (inactive). Also, the GI50 in [15] is 10.1 µM (inactive).

For the compound `O=C(c1ccccc1)N1CCN2CCN=C(c3ccccc3)C21c1ccccc1` (configuration not stated), the GI50 in assay [1] was 63.1 µM (inactive); in [2], 61.9 µM (inactive); in assay [3], 70.8 µM (inactive); in assay [4], > 100 µM (inactive); in [5], 48.2 µM (inactive); in [6], > 100 µM (inactive). Moreover, the GI50 in assay [7] is > 100 µM (inactive); in assay [8], 61.2 µM (inactive); in assay [9], 20.2 µM (inactive); in assay [10] it was 80.2 µM (inactive); in assay [12], 52.1 µM (inactive); in assay [16], > 100 µM (inactive). Also, the GI50 in assay [13], in assay [14] and in assay [15] was > 100 µM (inactive) throughout.

As to `O=P(CN1CCOCC1)(c1ccccc1)c1ccccc1`, the GI50 in assay [1], in assay [2], in [3], in assay [5], in assay [6] and in [7] was > 100 µM (inactive) throughout. For the same compound, the GI50 in assay [8], in assay [9], in assay [10], in assay [11], in assay [12] and in assay [16] was > 100 µM (inactive) each time. The GI50 in assay [13], in assay [14] and in assay [15] was > 100 µM (inactive) each time.

For `CN(C)c1ccc(/C=C2\CCc3ccccc3C2=O)cc1Br`, the GI50 in assay [1] was > 100 µM (inactive); in [2], 36 µM (inactive); in [3], 99.5 µM (inactive); in [4], > 100 µM (inactive); in assay [5], 37.3 µM (inactive); in [7] it was 32.7 µM (inactive). Further, the GI50 in assay [8] was 53.6 µM (inactive); in assay [9] it was 32.6 µM (inactive); in [10], 68.7 µM (inactive); in [11], > 100 µM (inactive); in [12], > 100 µM (inactive); in [16], 71.1 µM (inactive). Further, the figures for the GI50 in assay [13], in assay [14] and in [15] were 25.8 µM (inactive), > 100 µM (inactive) and 71.8 µM (inactive), respectively.

For the compound `Cc1c2n(c(=O)[nH]c1=O)C1OC(CO)C(O2)C1N=[N+]=[N-]` (configuration not stated), the GI50 in assay [1], in assay [2], in assay [3], in assay [5], in assay [6] and in assay [7] was > 100 µM (inactive) throughout. Besides, the GI50 in assay [9], in assay [10], in assay [12], in assay [16], in [13] and in assay [14] was > 100 µM (inactive) in each case. Further, the GI50 in assay [15] is > 100 µM (inactive).

`COc1ccc(C(=O)O)c2c(=O)c3ccccc3[nH]c12`: the GI50 in assay [1] is > 100 µM (inactive); in assay [2], > 31.6 µM (inactive); in assay [3], > 100 µM (inactive); in assay [4], > 100 µM (inactive); in assay [5], > 100 µM (inactive); in assay [6], > 100 µM (inactive). The GI50 in assay [7] is > 100 µM (inactive); in assay [8] it was > 31.6 µM (inactive); in assay [9] it was > 100 µM (inactive); in [10], > 100 µM (inactive); in assay [11], > 100 µM (inactive); in assay [12], > 100 µM (inactive). Further, the GI50 in assay [16], in [14] and in assay [15] was > 100 µM (inactive) throughout.

Regarding `COc1ccc(C2S/C(=C\c3cccc(OC)c3)C(=O)N2NC(=O)Cc2ccccc2)cc1` (configuration not stated), the GI50 in [1], in assay [2], in [5], in [6], in assay [7] and in assay [8] was > 100 µM (inactive) in each case. The GI50 in assay [9], in assay [10], in [11], in assay [12], in [16] and in [13] was > 100 µM (inactive) throughout. Further, the GI50 in assay [14] and in assay [15] was > 100 µM (inactive) each time.

For the compound `O=[N+]([O-])c1ccc(Sc2c3ccccc3nc3ccccc23)cc1`, the GI50 in [1], in assay [2], in assay [3], in assay [4], in assay [5] and in assay [6] was > 100 µM (inactive) each time. In addition, the GI50 in assay [7], in assay [8], in assay [9], in assay [10], in assay [11] and in [12] was > 100 µM (inactive) each time. Besides, the GI50 in assay [16], in assay [13] and in assay [15] was > 100 µM (inactive) each time.

On to `O=C1/C(=C/c2ccccc2)CN(C(=O)C(F)(F)F)C/C1=C\c1ccccc1`, for which the GI50 is 2.24 µM (inactive) in assay [1]; 1.54 µM (inactive) in assay [2]; > 10 µM (inactive) in assay [3]; 0.333 µM (active) in [5]; 2.29 µM (inactive) in assay [6]; 1.22 µM (inactive) in assay [7]. The GI50 in assay [8] is 1.61 µM (inactive); in assay [9], 3.06 µM (inactive); in assay [10], 1.83 µM (inactive); in [11] it was 3.46 µM (inactive); in [12], 1.59 µM (inactive); in assay [16] it was 1.83 µM (inactive). Besides, the values for the GI50 in assay [13], in assay [14] and in [15] were 1.71 µM (inactive), 3.61 µM (inactive) and 1.57 µM (inactive), respectively.

Turning to `COC1=C2C[C@H](O)C(C)C[C@@]2(OC)OC1=O` (some centres not stated), the GI50 in assay [2], in assay [4], in assay [5], in assay [6], in [7] and in assay [8] was > 100 µM (inactive) each time. Besides, the GI50 in assay [9], in assay [10], in assay [12], in assay [16], in assay [13] and in assay [15] was > 100 µM (inactive) in each case.
